In EP0519427A2, “N-substituted-3-iodopropiolamide, production and use thereof” (priority 1991, dated 1992):

How the values were obtained:
[1] = test system: Coriolus versicolor(L. ex Fr.) Quélet, FFPRI 1030; assay: Preserving activity for wood preservatives (weight loss of treated wood); assay type: cell-based; settings: beech sapwood specimens, 110 ± 10 g/m² preservative applied (0.5% xylene solution per table note), eight weeks at 26 ± 2 °C; lower = higher preserving activity
Protocol: (§1) This test was conducted according to Specification No.1 of Japan Wood Preserving Association, enacted in 1979, amended in 1989 and titled "Test methods of preserving activity for wood preservatives used in the coating, spraying and dipping treatment".
(§2) • ① Tyromyces palustris (Ber. et Curt.) Murr., FFPRI 0507 --"Ouzuratake" • ② Coriolus versicolor(L. ex Fr.) Quélet, FFPRI 1030 --"Kawaratake"
(§3) These two fungi are classified as wood rot fungi.
(§4) Culture media comprised culture jars (cylindrical jars of bottom diameter 8-9 cm, opening diameter 6-7 cm and height 15-18 cm), in which quartz sand of 250 g (the size of which corresponds to 20-30 mesh) was put first, and then the solution of 70 ml containing 2.0 % malt extracts and 1.0 % peptone was introduced, over which chips of the beech or other broadleaf tree were spread at about 2 mm thickness, and then sterilized at 120 °C for 30 minutes in the wet heated sterilizer.
(§5) Fungi were cultured at 26 ± 2 °C with shaking using the culture solution of 2.0 % malt extracts and 1.0 % peptone. After sufficient breeding was obtained, the fungi solution of about 3 ml was spread all over the culture medium, and then the fungi were cultured at 26 ± 2 °C with the relative humidity of over 70 %. After 10-15 days when the fungi layer sufficiently covered the culture medium, the fungi were served for the tests.
(§6) Wood specimens were the sapwood of intact cedar and beech, the dimension of which was 5 mm thick, 20 mm wide and 40 mm long. The grain face was of 20 mm width and 40 mm length. The side faces were treated with cold-setting epoxy resin.
(§7) The antimicrobial operation was performed with specifying types of fungi for corresponding type of trees. The combinations were as follows: Cedar----Tyromyces palustris ("Ouzuratake") Beech----Coriolus versicolor ("Kawaratake")
(§8) The test specimens were of two types, treated and untreated specimens, respectively.
(§9) The treated specimens referred to the wood specimens coated by brushing, spraying or dipping with wood preservatives. The amount of applied preservatives was 110 ± 10 g/m².
(§10) The amount of applied preservatives for each test specimen was calculated by the following equation:
(§11) The amount of applied preservatives (g/m²)=(W₁-W₂)/A wherein W₁ : weight of the test specimen after absorption(g), W₂ : weight of the test specimen before absorption(g) and A: surface area of test specimen except both butt surfaces (m²)
(§12) 2-7-1 The test specimens prepared in the previous section were dried at 60 ± 2 °C with a recirculating dryer for 48 hours, and were allowed to stand in a desiccator for about 30 minutes, and then the weight (W₃) was measured to an accuracy of 0.01 g.
(§13) 2-7-2 Three of each treated and untreated specimens were assembled in the Teflon casing. After sterilizing, the two assemblies were put on their 40 × 5 mm face on the fungi layer in the separate jar. They were kept at 26 ± 2 °C under the relative humidity of over 70 % for eight weeks.
(§14) 2-7-3 After the eight weeks had elapsed, the test specimens were taken out, and mycelia and other attachments of them were removed neatly. After air-drying for 24 hours, the test specimens were dried at 60 ± 2 °C in a recirculating dryer for 48 hours, and were allowed to stand in a desiccator for about 30 minutes, and then the weight (W₄) was measured to an accuracy of 0.01 g.
(§15) The test results were presented by the ratio of average weight loss of test specimens due to antimicrobial operation. The standard deviation and coefficient of variation were also determined. The ratio of weight loss for each test specimen was calculated by the following equation, and its average was also determined: The ratio of weight loss(%) = (W₃ - W₄) / W₃ × 100 [formula] . Lower value of the ratio of weight loss corresponds to higher wood preserving activity. […]

[2] = test system: Tyromyces palustris (Ber. et Curt.) Murr., FFPRI 0507; assay: as above; assay type: cell-based; settings: cedar sapwood specimens, 110 ± 10 g/m² preservative applied (0.5% xylene solution per table note), eight weeks at 26 ± 2 °C; lower = higher preserving activity
Protocol: as §1, §2, §3, §4, §5, §6, §7, §8, §9, §10, §11, §12, §13, §14, §15

wood rot fungi = assay: Preserving activity for wood preservatives, overall statement for both fungi; assay type: cell-based, Tyromyces palustris, Coriolus versicolor; settings: summary of Table 2
Protocol: as §1, §2, §3, §4, §5, §6, §7, §8, §9, §10, §11, §12, §13, §14, §15

[3] = test system: Coptofermes formosanus SHIRAKI; assay: Anti-termite activity, contact toxicity on treated quartz sand; assay type: in vivo
Protocol: This test was conducted on the basis of the method described in Specification No.11 of Japan Wood Preserving Association, enacted in 1981 and titled "The test methods of anti-termite activity for anti-termite agent used in the coating, spraying and dipping treatment, (1) Laboratory test methods".
The termite to be used was Coptofermes formosanus SHIRAKI ("ieshiroari").
4-2-1 The treated quartz sand was prepared as follows : The quartz sand, which passed through a sieve with 60 mesh screen, of 3 g was mixed with the BACTRO-AGAR solution of 1 ml with good agitation. Then, water content was adjusted to 5 %.
4-2-2 The test quartz sand was prepared as follows : The anti-termite agent solution of intended concentration (ppm) was added to the above treated quartz sand, then was mixed, and then was allowed to stand for 14 days to vaporize solvents.
4-2-3 The test quartz sand of 4 g were put into a Petri dish (6 cm in diameter) sterilized with dry heat.
4-2-4 Ten termite workers were randomly sampled from their nest, and then put on the quartz sand.
4-2-5 Each Petri dish was placed in a vessel containing water in the bottom, and then the vessel was allowed to stand in the constant temperature room at 28 ± 2 °C for 14 days. The number of the dead termites was observed and recorded. The first day : every 2 hours for 8 hours. After the second day : every 24 hour.
4-2-6 Test was repeated three times for each concentration of anti-termite agent solution.
4-3-1 Each time when observing, the number of healthy termites and dead termites were recorded.
4-3-2 The results are shown below in Table 4. […]

[4] = concentration 100 ppm, term of contact 1 day
[5] = concentration 100 ppm, term of contact 2 days
[6] = concentration 100 ppm, term of contact 3 days
[7] = concentration 100 ppm, term of contact 5 days
[8] = concentration 1000 ppm, term of contact 1 day
[9] = concentration 1000 ppm, term of contact 2 days
[10] = concentration 1000 ppm, term of contact 3 days
[11] = concentration 1000 ppm, term of contact 5 days

| Compound | Ratio of weight loss (%), C. versicolor [1] | Ratio of weight loss (%), T. palustris [2] | wood preserving activity (statement in words) (wood rot fungi) | Death rate (%) [3, 4] | Death rate (%) [3, 5] | Death rate (%) [3, 6] | Death rate (%) [3, 7] | Death rate (%) [3, 8] | Death rate (%) [3, 9] | Death rate (%) [3, 10] | Death rate (%) [3, 11] |
| --- | --- | --- | --- | --- | --- | --- | --- | --- | --- | --- | --- |
| CC(C)(C)NC(=O)C#CI [Example 1, N-(tert-Butyl)-3-iodopropiolamide] | 11.9% | 2.4% | excellent wood preserving activity | 0% | 0% | 30% | 100% | 0% | 50% | 100% | 100% |
| CCCCCCCCCCNC(=O)C#CI [Example 2, N-(n-Decyl)-3-iodopropiolamide] | 15.9% | 0.2% | excellent wood preserving activity | – | – | – | – | – | – | – | – |
| CCCCNC(=O)C#CI [Example 4, N-(n-Butyl)-3-iodopropiolamide] | 1.6% | 0.0% | excellent wood preserving activity | 0% | 0% | 30% | 100% | 0% | 30% | 100% | 100% |
| CCC(C)NC(=O)C#CI (stereo not drawn) [Example 5, N-(sec-Butyl)-3-iodopropiolamide] | 7.2% | 2.5% | excellent wood preserving activity | – | – | – | – | – | – | – | – |
| CC(C)CNC(=O)C#CI [Example 6, N-Isobutyl-3-iodopropiolamide] | 1.5% | 0.0% | excellent wood preserving activity | – | – | – | – | – | – | – | – |
| CCCCCNC(=O)C#CI [Example 7, N-(n-Pentyl)-3-iodopropiolamide] | 3.1% | 2.2% | excellent wood preserving activity | – | – | – | – | – | – | – | – |
| CCCCCCNC(=O)C#CI [Example 8, N-(n-Hexyl)-3-iodopropiolamide] | 1.7% | 1.3% | excellent wood preserving activity | 0% | 0% | 20% | 100% | 0% | 0% | 70% | 100% |
| CCCCCCCNC(=O)C#CI [Example 9, N-(n-Heptyl)-3-iodopropiolamide] | 12.0% | 3.3% | – | – | – | – | – | – | – | – | – |
| CCCCCCCCNC(=O)C#CI [Example 10, N-(n-Octyl)-3-iodopropiolamide] | 8.4% | 5.0% | – | – | – | – | – | – | – | – | – |
| CCCCCCCCCNC(=O)C#CI [Example 11, N-(n-Nonyl)-3-iodopropiolamide] | 14.2% | 5.8% | – | – | – | – | – | – | – | – | – |
